Laboratory results from patent US20230210999A1, “TARGETED PROTEASE DEGRADATION (TED) PLATFORM” (EUBULUS BIOTHERAPEUTICS INC., priority 2020, published 2023).
Like-named read-outs stand apart in the source and are kept apart here.

Columns and labels:
Format in all cases: cell-based, human
MV4;11 cells = test: Cell proliferation experiment (Alamar blue, 72 h), MV4;11
Outline: (§1)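 Log-phase cells were seeded in 96-well plates and exposed to compound in complete medium over a 5-fold dilution series, in duplicate, for 72 h. Alamar blue fluorescence was read per well and IC50 was obtained by four-parameter curve fitting.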

PC-3 = test: Cell proliferation experiment, PC-3
Outline: as §1

Daudi cells = test: Cell proliferation experiment, Daudi; conditions: read-out: Inhibitory activity IC50 on Daudi
Outline: as §1

MDA-MB-231 cells = test: Cell proliferation experiment, MDA-MB-231
Outline: as §1

NCIH82 cells = test: Cell proliferation experiment, NCI-H82; conditions: read-out: Inhibitory activity IC50 on NCI-H82
Outline: as §1

[1] = Homo sapiens, MV4-11, MV4;11 cells, read-out: Inhibitory activity IC50 on MV4;11
[2] = Homo sapiens, PC-3, PC-3 cells, read-out: Inhibitory activity IC50 on PC-3
[3] = Homo sapiens, Daudi, Daudi cells
[4] = Homo sapiens, MDA-MB-231, MDA-MB-231 cells, read-out: Inhibitory activity IC50 on MDA-MB-231
[5] = MDA-MB-231 cells, read-out: Inhibitory activity IC50 on MDA-MB-231
[6] = Homo sapiens, NCI-H82, NCI-H82 cells
[7] = MV4;11 cells, read-out: Inhibitory activity IC50 on MV4;11
[8] = PC-3 cells, read-out: Inhibitory activity IC50 on PC-3

Structure (SMILES)	IC50 (MV4;11 cells; [1]) [nM]	IC50 (PC-3; [2]) [nM]	IC50 (MDA-MB-231 cells; [4]) [nM]	IC50 (NCIH82 cells; [6]) [nM]	also measured
CC[C@@H]1C(=O)N(C)c2cnc(Nc3ccc(C(=O)N[C@H]4CC[C@@H](NCCOCCC#Cc5cccc6c5CN(C5CCC(=O)NC5=O)C6=O)CC4)cc3OC)nc2N1C1CCCC1 (stereo partly drawn) [UB-180937]	< 10	10 to 100	10 to 100		IC50 (Daudi cells; [3]): 10 to 100 nM
CC[C@@H]1C(=O)N(C)c2cnc(Nc3ccc(-c4cn(C5CCC(NCCOCCC#Cc6cccc7c6CN(C6CCC(=O)NC6=O)C7=O)CC5)nn4)cc3OC)nc2N1C1CCCC1 (stereo partly drawn) [UB-180961]	< 10	< 10	< 10		IC50 (Daudi cells; [3]): < 10 nM
CC[C@@H]1C(=O)N(C)c2cnc(Nc3ccc(-c4cn([C@H]5CC[C@@H](NCCOCCC#Cc6cccc7c6CN(C6CCC(=O)NC6=O)C7=O)CC5)nn4)cc3)nc2N1C1CCCC1 (stereo partly drawn) [UB-181099]	< 10	10 to 100			IC50 (Daudi cells; Daudi cells): 10 to 100 nM; IC50 (MDA-MB-231 cells; [5]): 10 to 100 nM
CC[C@@H]1C(=O)N(C)c2cnc(Nc3ccc(-c4cn([C@H]5CC[C@H](NCCOCCC#Cc6cccc7c6CN(C6CCC(=O)NC6=O)C7=O)CC5)nn4)cc3OC)nc2N1C1CCCC1 (stereo partly drawn) [UB-181108]	< 10	10 to 100	10 to 100		IC50 (Daudi cells; [3]): 10 to 100 nM
CC[C@@H]1C(=O)N(C)c2cnc(Nc3ccc(C(=O)N[C@H]4CC[C@H](NCCOCCC#Cc5cccc6c5CN(C5CCC(=O)NC5=O)C6=O)CC4)cc3OC)nc2N1C1CCCC1 (stereo partly drawn) [UB-181113]					IC50 (MV4;11 cells; Homo sapiens, MV4-11, read-out: Inhibitory activity IC50 on MV4;11): < 10 nM; IC50 (PC-3; Homo sapiens, PC-3, read-out: Inhibitory activity IC50 on PC-3): 10 to 100 nM; IC50 (Daudi cells; Homo sapiens, Daudi): 10 to 100 nM; IC50 (MDA-MB-231 cells; Homo sapiens, MDA-MB-231, read-out: Inhibitory activity IC50 on MDA-MB-231): 10 to 100 nM
CNC(=O)c1ncccc1Nc1nc(Nc2ccc(N3CCN(C(=O)N[C@H]4CC[C@@H](NCCOCCC#Cc5cccc6c5CN(C5CCC(=O)NC5=O)C6=O)CC4)CC3)cc2)ncc1C#N (stereo partly drawn) [UB-181116]	100 to 1000	> 1000	> 1000	> 1000	
CNC(=O)c1ncccc1Nc1nc(Nc2ccc(N3CCN(C(=O)N[C@H]4CC[C@@H](NCCOCCC#Cc5ccc6c(c5)CN(C5CCC(=O)NC5=O)C6=O)CC4)CC3)cc2)ncc1C#N (stereo partly drawn) [UB-181117]	10 to 100	> 1000	> 1000	> 1000	
CC[C@@H]1C(=O)N(C)c2cnc(Nc3ccc(-c4cn([C@H]5CC[C@H](NCCOCCC#Cc6cccc7c6CN(C6CCC(=O)NC6=O)C7=O)CC5)nn4)cc3)nc2N1C1CCCC1 (stereo partly drawn) [UB-181118]	< 10	10 to 100	10 to 100		IC50 (Daudi cells; [3]): 100 to 1000 nM
CNC(=O)c1ccccc1Nc1nc(Nc2ccc(N3CCN(C(=O)N[C@H]4CC[C@@H](NCCOCCC#Cc5cccc6c5CN(C5CCC(=O)NC5=O)C6=O)CC4)CC3)cc2)ncc1Cl (stereo partly drawn) [UB-181119]					IC50 (MV4;11 cells; [7]): < 10 nM; IC50 (PC-3; [8]): 10 to 100 nM; IC50 (NCIH82 cells; NCI-H82 cells): 100 to 1000 nM; IC50 (MDA-MB-231 cells; [5]): 100 to 1000 nM
CNC(=O)c1ccccc1Nc1nc(Nc2ccc(N3CCN(C(=O)N[C@H]4CC[C@@H](NCCOCCC#Cc5cccc6c5CN(C5CCC(=O)NC5=O)C6=O)CC4)CC3)cc2)ncc1Cl (stereo partly drawn) [UB-181120]					IC50 (MV4;11 cells; [7]): < 10 nM; IC50 (PC-3; [8]): 10 to 100 nM; IC50 (NCIH82 cells; NCI-H82 cells): 100 to 1000 nM; IC50 (MDA-MB-231 cells; [5]): 100 to 1000 nM
CNC(=O)c1ccccc1Nc1nc(Nc2ccc(N3CCN(C(=O)N[C@H]4CC[C@@H](NCCOCCC#Cc5ccc6c(c5)CN(C5CCC(=O)NC5=O)C6=O)CC4)CC3)cc2)ncc1C#N (stereo partly drawn) [UB-181123]					IC50 (MV4;11 cells; [7]): < 10 nM; IC50 (PC-3; [8]): 10 to 100 nM; IC50 (NCIH82 cells; NCI-H82 cells): 100 to 1000 nM; IC50 (MDA-MB-231 cells; [5]): 100 to 1000 nM
CNC(=O)c1ncccc1Nc1nc(Nc2ccc(N3CCN(C(=O)N[C@H]4CC[C@H](NCCOCCC#Cc5cccc6c5CN(C5CCC(=O)NC5=O)C6=O)CC4)CC3)cc2)ncc1C#N (stereo partly drawn) [UB-181124]	10 to 100	10 to 100	> 1000	> 1000	
CNC(=O)c1ccccc1Nc1nc(Nc2ccc(N3CCN(C(=O)NC4CCC(NCCOCCC#Cc5ccc6c(c5)CN(C5CCC(=O)NC5=O)C6=O)CC4)CC3)cc2)ncc1C#N (stereo not drawn) [UB-181125]	10 to 100	100 to 1000	> 1000	> 1000	
CNC(=O)c1ncccc1Nc1nc(Nc2ccc(N3CCN(C(=O)NC4CCC(NCCOCCC#Cc5cccc6c5CN(C5CCC(=O)NC5=O)C6=O)CC4)CC3)cc2)ncc1Cl (stereo not drawn) [UB-181128]	< 10	> 1000	> 1000	> 1000	
CNC(=O)c1ncccc1Nc1nc(Nc2ccc(N3CCN(C(=O)NC4CCC(NCCOCCC#Cc5ccc6c(c5)CN(C5CCC(=O)NC5=O)C6=O)CC4)CC3)cc2)ncc1Cl (stereo not drawn) [UB-181129]	10 to 100	> 1000	> 1000	100 to 1000	
N#Cc1ccccc1Nc1nc(Nc2ccc(N3CCN(C(=O)N[C@H]4CC[C@@H](NCCOCCC#Cc5cccc6c5CN(C5CCC(=O)NC5=O)C6=O)CC4)CC3)cc2)ncc1Cl (stereo partly drawn) [UB-181132]	< 10	100 to 1000	100 to 1000	100 to 1000	
N#Cc1ccccc1Nc1nc(Nc2ccc(N3CCN(C(=O)N[C@H]4CC[C@@H](NCCOCCC#Cc5ccc6c(c5)CN(C5CCC(=O)NC5=O)C6=O)CC4)CC3)cc2)ncc1Cl (stereo partly drawn) [UB-181133]	10 to 100	100 to 1000	> 1000	100 to 1000	
N#Cc1ccccc1Nc1nc(Nc2ccc(C3CCN(C(=O)N[C@H]4CC[C@@H](NCCOCCC#Cc5cccc6c5CN(C5CCC(=O)NC5=O)C6=O)CC4)CC3)cc2)ncc1Cl (stereo partly drawn) [UB-181134]	10 to 100	> 1000	> 1000	> 1000	
N#Cc1ccccc1Nc1nc(Nc2ccc(C3CCN(C(=O)N[C@H]4CC[C@@H](NCCOCCC#Cc5ccc6c(c5)CN(C5CCC(=O)NC5=O)C6=O)CC4)CC3)cc2)ncc1Cl (stereo partly drawn) [UB-181135]	10 to 100	> 1000	> 1000	> 1000	
CS(=O)(=O)c1ccccc1Nc1nc(Nc2ccc(C3CCN(C(=O)N[C@H]4CC[C@H](NCCOCCC#Cc5cccc6c5CN(C5CCC(=O)NC5=O)C6=O)CC4)CC3)cc2)ncc1Cl (stereo partly drawn) [UB-181139]	< 10	100 to 1000	100 to 1000	100 to 1000	
CS(=O)(=O)c1ccccc1Nc1nc(Nc2ccc(C3CCN(C(=O)N[C@H]4CC[C@@H](NCCOCCC#Cc5ccc6c(c5)CN(C5CCC(=O)NC5=O)C6=O)CC4)CC3)cc2)ncc1Cl (stereo partly drawn) [UB-181140]	< 10	100 to 1000	100 to 1000	100 to 1000	
CC[C@@H]1C(=O)N(C)c2cnc(Nc3ccc(C(=O)NC4CCN(CCOCCN(C)CC(=O)Nc5cccc6c5CN(C5CCC(=O)NC5=O)C6=O)CC4)cc3)nc2N1C1CCCC1 (stereo partly drawn) [UB-181143]	10 to 100	100 to 1000	100 to 1000		IC50 (Daudi cells; [3]): 100 to 1000 nM
CC[C@@H]1C(=O)N(C)c2cnc(Nc3ccc(C(=O)N[C@H]4CC[C@H](NCCOCCC#Cc5cccc6c5CN(C5CCC(=O)NC5=O)C6=O)CC4)cc3)nc2N1C1CCCC1 (stereo partly drawn) [UB-181144]	< 10	10 to 100	10 to 100		IC50 (Daudi cells; [3]): 10 to 100 nM
CC[C@@H]1C(=O)N(C)c2cnc(Nc3ccc(-c4cn([C@H]5CC[C@@H](NCCOCCC#Cc6cccc7c6CN(C6CCC(=O)NC6=O)C7=O)CC5)nn4)cc3OC)nc2N1Cc1ccc(Cl)s1 (stereo partly drawn) [UB-181145]	< 10	< 10	< 10		IC50 (Daudi cells; [3]): < 10 nM
CC(=O)c1ccccc1Nc1nc(Nc2ccc(C3CCN(C(=O)N[C@H]4CC[C@H](NCCOCCC#Cc5cccc6c5CN(C5CCC(=O)NC5=O)C6=O)CC4)CC3)cc2)ncc1Cl (stereo partly drawn) [UB-181146]	< 10	> 1000	> 1000	> 1000	
NC(=O)c1ccccc1Nc1nc(Nc2ccc(C3CCN(C(=O)N[C@H]4CC[C@H](NCCOCCC#Cc5cccc6c5CN(C5CCC(=O)NC5=O)C6=O)CC4)CC3)cc2)ncc1Cl (stereo partly drawn) [UB-181147]	< 10	100 to 1000	100 to 1000	100 to 1000	
CC[C@@H]1C(=O)N(C)c2cnc(Nc3ccc(-c4cn([C@H]5CC[C@@H](N(CCOCCC#Cc6cccc7c6CN(C6CCC(=O)NC6=O)C7=O)C(=O)OCc6ccc(NC(=O)[C@H](CC(N)=O)NC(=O)[C@H](C)NC(=O)[C@H](C)NC(=O)CCCCCN7C(=O)C=CC7=O)cc6)CC5)nn4)cc3OC)nc2N1C1CCCC1 (stereo partly drawn) [UB-181149]	100 to 1000	100 to 1000	100 to 1000		IC50 (Daudi cells; [3]): 100 to 1000 nM
CC(=O)c1ccccc1Nc1nc(Nc2ccc(C3CCN(C(=O)N[C@H]4CC[C@H](NCCOCCC#Cc5ccc6c(c5)CN(C5CCC(=O)NC5=O)C6=O)CC4)CC3)cc2)ncc1Cl (stereo partly drawn) [UB-181151]	< 10	> 1000	> 1000	100 to 1000	
NC(=O)c1ccccc1Nc1nc(Nc2ccc(C3CCN(C(=O)NC4CCC(NCCOCCC#Cc5ccc6c(c5)CN(C5CCC(=O)NC5=O)C6=O)CC4)CC3)cc2)ncc1Cl (stereo not drawn) [UB-181152]	< 10	100 to 1000	100 to 1000	100 to 1000	
CC[C@@H]1C(=O)N(C)c2cnc(Nc3ccc(-c4cn([C@H]5CC[C@@H](NCCOCCC#Cc6cccc7c6CN(C6CCC(=O)NC6=O)C7=O)CC5)nn4)cc3)nc2N1C1CCCC1 (stereo partly drawn) [UB-181154]					IC50 (MV4;11 cells; [7]): < 10 nM; IC50 (PC-3; [8]): 10 to 100 nM; IC50 (Daudi cells; Daudi cells): 100 to 1000 nM; IC50 (MDA-MB-231 cells; [5]): 100 to 1000 nM
